A short description of this data set: Human HepG2 cell viability assay in 384 well format. It is filed as toxicity, cell-based. Conditions: HepG2 cells, read-out: Inhibition. Details: dose 125 nL, time 70.5 hour; concentration not given beside the values.
Regarding `CC(C)=CCN1CCN(C(=O)c2cc(C)n[nH]2)[C@H]2CS(=O)(=O)C[C@H]21`, the cytotoxicity at 70.5 h worked out at 0.726%.

As for `Cc1noc(C)c1CNC(=O)N1CCC(C(O)c2ccccc2)CC1` (centres undefined), the cytotoxicity at 70.5 h was -6%. The value for `Cc1nn(C)c2ncc(CNCCc3ccccn3)cc12` was -8.59%; that for `COc1nc2c(cc1C(=O)NCc1noc(-c3ccco3)n1)CCC2` was -7.17%. Turning to `COC(C)c1cccc(NCc2ccsc2)c1` (centres undefined), the cytotoxicity at 70.5 h is -2.9%. The value for `Cn1cc(C2CCCN2C(=O)c2ccc(OCC3CC3)nc2)cn1` (centres undefined) was -4.15%; that for `CN1CCCC(Cc2cncc(C(=O)N3CCOCC3)c2)C1` (centres undefined) was 12.9%; that for `Cn1cccc1C(=O)N1CCCC(Cn2cc(CO)nn2)C1` (centres undefined) was -2.41%. In the case of `CS(=O)(=O)N1CCCCC12CCN(C(=O)c1ccccc1)C2` (centres undefined), the cytotoxicity at 70.5 h is -8.78%.

Take `COc1cccc(CNC(=O)N2CCN3CCNC(=O)C3C2)c1` (centres undefined): the cytotoxicity at 70.5 h was -10.4%.

For `Cc1ccccc1-n1cc(-c2ccnc(N3CCCC(O)C3)n2)cn1` (centres undefined), the cytotoxicity at 70.5 h is -3.81%.

Turning to `CCS(=O)(=O)N1CCC2(CN(c3cccc(F)c3)C(=O)CN2C)C1` (centres undefined), the cytotoxicity at 70.5 h is -8.93%. The value for `Cc1ccc(NC2CCN(C(=O)COC3CCCCC3)CC2)nn1` was 20.5%; that for `CC(C1CC1)N(C)Cc1nnc(-c2ccco2)o1` (centres undefined) was 1.08%; that for `COc1ccc(Oc2ncccc2C(N)=O)cc1CN1CCCC1` was -7.33%. The value for `CSCCN1CCN(c2nc(N)ncc2C)CC1` was 21.4%; that for `COCC(NC(=O)NCc1cccc(Cl)c1)c1ccco1` (centres undefined) was -5.77%. Regarding `CCCC(O)CN1CC(C)(C)CN(C(=O)CCc2ccccc2)CC1=O` (centres undefined), the cytotoxicity at 70.5 h was determined as 19.5%.

Turning to `Fc1ccc(-c2nnc(CN3CCCC3Cn3cncn3)o2)cc1` (centres undefined), the cytotoxicity at 70.5 h was -8.54%. Regarding `NS(=O)(=O)c1ccc(NCc2ccccc2F)cc1C(F)(F)F`, the cytotoxicity at 70.5 h came to 1.33%. The value for `COCCC(=O)N1CCC(c2ccc3c(NC(C)C)n[nH]c3n2)C1` (centres undefined) was -6.39%; that for `CC(c1cccnc1)N1CCN(C(=O)NCc2cnn(C)c2)CC1` (centres undefined) was -1.81%; that for `CC(C)c1ccc(S(=O)(=O)NC2(CC(N)=O)CCC2)cc1` was 2.8%. The value for `Cc1nc(Cn2cc(I)cc(C)c2=O)oc1C` was 2.15%. Next, `Cc1cnc(C(=O)N2CCC(COCc3ccccc3)C2)cn1` (centres undefined): -2.03%.

With `CC(C)OCc1ccc(CNC(=O)NC2(CO)CCCC2)cc1`, the cytotoxicity at 70.5 h was -10.3%.

In the case of `Cc1ccc(CNC(=O)N2CCN(Cc3ccsc3)CC2)n1C`, the cytotoxicity at 70.5 h was determined as 30.9%. With `CCOc1nnc(CN2CCOC(CNc3cccnn3)C2)s1` (centres undefined), the cytotoxicity at 70.5 h was 15%. For the molecule `CC(C)NC(=O)COc1nc(C(C)(C)C)no1`, the cytotoxicity at 70.5 h was -6.41%.

For the molecule `COc1ccc(CN(C)[C@@H]2COC[C@H]2c2ccc(F)cc2)c(OC)c1`, the cytotoxicity at 70.5 h was determined as 0.309%. For the molecule `COc1ccc(CCN)cc1-c1ccc(O)cc1`, the cytotoxicity at 70.5 h was -13.9%.

For `CC1CN(Cc2ccccc2)CCCN1CCNS(C)(=O)=O` (centres undefined), the cytotoxicity at 70.5 h was -0.345%. For the molecule `CN(C)c1cc(CNC(=O)c2cn(-c3ccc(F)cc3)nn2)ccn1`, the cytotoxicity at 70.5 h was -8.15%.

For `O=C(Cc1ccsc1)N1CCC2(CCCN(CC3CCOCC3)C2)C1` (centres undefined), the cytotoxicity at 70.5 h turned out to be 1.53%.

`Cn1nccc1C(=O)N1CC[C@]2(C[C@H](OCc3ccccn3)CO2)C1`: the cytotoxicity at 70.5 h was -11.1%. For `CC(=O)N(C)c1nc(Cn2nnnc2C(C)(C)C)cs1`, the cytotoxicity at 70.5 h was -4.99%. Next, `CS(=O)(=O)N1C[C@@H](C(=O)Nc2cnccn2)C[C@H]2OCC[C@H]21`: -7.68%; `Cc1cnn(CC2CCCN2CCc2nc3ccccc3c(=O)[nH]2)c1` (centres undefined): 0.164%. In the case of `O=c1c2cn[nH]c2nc(SCCN2CCCC2)n1-c1ccccc1`, the cytotoxicity at 70.5 h is -6.58%. As to `CC(C)n1nc2c(cc1=O)CN(Cc1nc(-c3ccco3)no1)CC2`, the cytotoxicity at 70.5 h is -5.7%. Consider `O=C(NCCn1ccnc1)N1CCCC1c1cccs1` (centres undefined), for which the cytotoxicity at 70.5 h was found to be 2.2%. As to `CCCS(=O)(=O)N1C[C@@H](c2ccccc2)[C@@]2(CCNC2=O)C1`, the cytotoxicity at 70.5 h was determined as 5.81%.

Take `CCCn1ncc(CN2C[C@@H]3CCCN3C[C@H]2Cc2ccccc2)c1C`: the cytotoxicity at 70.5 h came to 23.6%. Regarding `COc1ccc(NC(=O)NC(C)c2nc[nH]n2)cc1Cl` (centres undefined), the cytotoxicity at 70.5 h is -2.57%.

`O=C(Nc1cccc(OC(F)F)c1)C1CN(S(=O)(=O)C2CC2)C1`: the cytotoxicity at 70.5 h was found to be 0.345%. With `Cn1cc(Br)c(C(=O)NCCCn2cc(Br)cn2)n1`, the cytotoxicity at 70.5 h came to 6.5%.

Regarding `CSCCC(O)C(=O)N1CCN(Cc2cccc(Cl)c2)CC1` (centres undefined), the cytotoxicity at 70.5 h was -12.9%.

Take `O=C(c1cnccn1)N1CCC2(CCN(Cc3ccsc3)C2)CC1`: the cytotoxicity at 70.5 h is -5.07%. Consider `CNC(=O)N1CCC2(CC1)CC[C@@]1(C(=O)NC)CN(S(C)(=O)=O)C[C@@H]21`, for which the cytotoxicity at 70.5 h is -0.00397%. Next, `Cc1cc(CN2CCC(CNS(=O)(=O)c3ccccc3F)CC2)c(C)o1`: 37.7%. In the case of `CC1COCCN1Cc1nc(Cc2ccccc2)no1` (centres undefined), the cytotoxicity at 70.5 h is -8.66%. Regarding `c1cc(NC2CC3(CCN(Cc4cc[nH]n4)C3)C2)ncn1` (centres undefined), the cytotoxicity at 70.5 h was -16.2%. Consider `CC[S+](CC)[c-]1c(=O)[nH]c(=O)n(CCc2ccc(F)cc2)c1=O`, for which the cytotoxicity at 70.5 h is 3.7%. Consider `O=C(NCc1ccco1)[C@H]1COC[C@H]2CN(Cc3ccccn3)C[C@H]21`, for which the cytotoxicity at 70.5 h is -8.72%. With `O=C(NCCc1ccccc1Cl)NCC1(O)CCSC1` (centres undefined), the cytotoxicity at 70.5 h is 3.74%. Regarding `CC1c2ncc(Cn3cncn3)n2CCN1C(=O)c1cscn1` (centres undefined), the cytotoxicity at 70.5 h came to 20.8%. In the case of `O=C(NCCn1ccnc1)c1cccc(F)c1`, the cytotoxicity at 70.5 h is -11.3%. Regarding `O=C1CCC(C(=O)NCc2nn(-c3ccccc3)c3c2CCC3)CN1` (centres undefined), the cytotoxicity at 70.5 h was determined as 4.23%. In the case of `CC(C)c1ncc2c(n1)CN(Cc1nc(-c3ccccn3)no1)CC2`, the cytotoxicity at 70.5 h was -6.83%. Turning to `NC(=O)CN1CC2(CCC1=O)CCN(Cc1ccc(Cl)c(F)c1)CC2`, the cytotoxicity at 70.5 h is 2.58%. `O=C(CN1CCCCC1)N1CCC(c2cc(=O)n3c(n2)CCCCC3)C1` (centres undefined): the cytotoxicity at 70.5 h is -1.74%. The value for `Cc1cccc(C(=O)N2C[C@@H]3[C@H](CC(=O)Nc4cccnc4)[C@@H]3C2)n1` was -14.3%. Next, `Cc1nc(CCNC(=O)C(N)c2c(C)n[nH]c2C)sc1C` (centres undefined): -13.1%.

In the case of `CC1(C(=O)NCc2cc(F)cc(F)c2)CCOCC1`, the cytotoxicity at 70.5 h was -6.71%.

Regarding `CCC(CCNC(=O)c1cc(C2CC2)nc2c1cnn2C)n1cccn1` (centres undefined), the cytotoxicity at 70.5 h is -19.4%. The value for `COC1CCN(C(=O)Nc2ccccc2)CC(=O)N(C)c2ccccc21` (centres undefined) was -6.71%; that for `O=C(C1CCCO1)N1CCCn2c(nnc2Cn2ccnc2)C1` (centres undefined) was -7.67%. For the molecule `Cc1nc(CN2CCCN(CC(=O)Nc3cccnc3)CC2)no1`, the cytotoxicity at 70.5 h amounted to 7.78%.

As for `CN1CCOC(CNCC(=O)NCCC2=CCCCC2)C1` (centres undefined), the cytotoxicity at 70.5 h is 4.71%.

For `CC(C)N1CCCC(C(=O)NCc2noc(Cc3ccccc3)n2)C1` (centres undefined), the cytotoxicity at 70.5 h is 8.23%. `CCc1nc(CN2CCCN(C(=O)COC)CC2)cs1`: the cytotoxicity at 70.5 h is -6.47%. Take `CCN1C(=O)[C@]2(CC[C@@H]3CN(C(=O)Nc4ccc(F)cc4)C[C@@H]32)N=C1C`: the cytotoxicity at 70.5 h is -77.4%. Regarding `CN(C)c1ncc2c(n1)CN(C1CCSCC1)C2=O`, the cytotoxicity at 70.5 h is 22.1%. Consider `Cc1nc(N)sc1C(=O)N1CCCC(COc2ccc(F)cc2)C1` (centres undefined), for which the cytotoxicity at 70.5 h was -0.394%.

With `CCSc1cncc(N2CCC(C(=O)NC(C)C(C)C)CC2)n1` (centres undefined), the cytotoxicity at 70.5 h is -3.06%. Turning to `Cc1nc2cc(C3CCN(Cc4ccccc4F)C3)nn2c(O)c1C` (centres undefined), the cytotoxicity at 70.5 h is -3.81%.

On to `O=C(NCCO)C1(Cc2ccccc2-c2ccncc2)CCOCC1`, for which the cytotoxicity at 70.5 h is -7.35%. Next, `Cc1ccc2cc(C(=O)N3CCN(C(=O)c4ccoc4)CC3)[nH]c2c1`: 8.19%; `CCOCCCC(=O)NCC(c1ccccc1)N1CCc2sccc2C1` (centres undefined): 16.8%.

In the case of `Cc1ncc(-c2ccnc(N[C@@H](C)CO)n2)c(C2CCCCC2)n1`, the cytotoxicity at 70.5 h amounted to 24.8%. The value for `CCN1CCc2c(sc3c2C(=O)NC(/C=C\c2ccccc2)N3)C1` (centres undefined) was 16.4%. With `COc1ccc(C)cc1-c1csc(N)c1C#N`, the cytotoxicity at 70.5 h came out at 13.2%. Regarding `N#Cc1ccc(C(=O)N2CC[C@H]3[C@@H]2CCC(=O)N3c2ccccc2)cc1`, the cytotoxicity at 70.5 h was -12%. As for `c1cnc(NCc2ncn3c2CN(Cc2cccnc2)CCC3)nc1`, the cytotoxicity at 70.5 h was -2.74%. The value for `CS(=O)(=O)N1CC2(CCN(C3CCCCC3)C2)Cc2ccccc21` (centres undefined) was 0.278%; that for `Cn1c(CO)nnc1CC1CCN(Cc2ccc(C#N)cc2)CC1` was -1.35%; that for `O=C1CCC(=O)N1CCOc1nc(-c2ccccc2Cl)no1` was -77.6%. As for `COc1c(C2CC(=O)Nc3[nH]ncc32)cc2c(c1OC)OCO2` (centres undefined), the cytotoxicity at 70.5 h is -13.5%. Next, `CCOCC(O)CN1CCN(C(=O)c2ccncc2)CC1` (centres undefined): -3.55%; `Cc1c(Cl)cc(C(=O)NCCc2ncnn2C)cc1Cl`: -9.97%.

As for `Cc1ccc(CN2CCC(c3nnc(CN4CCCCC4)n3C)CC2)o1`, the cytotoxicity at 70.5 h is -5.72%.

As to `O=C1c2c(O)cc(O)cc2O[C@@H](c2ccc(O)cc2)[C@@H]1O`, the cytotoxicity at 70.5 h was -7.81%. Turning to `Cc1nc(CNC2CCc3nc(C(C)C)nn3C2)oc1C` (centres undefined), the cytotoxicity at 70.5 h is -4.84%.

Take `CCSc1ccc(C(=O)N2CC[C@](C)(O)[C@H](C)C2)s1`: the cytotoxicity at 70.5 h was -10.1%. As for `O=C(CN1CCCCC1Cn1cncn1)NC1CCN(C2CC2)CC1` (centres undefined), the cytotoxicity at 70.5 h is -1.8%. Take `COc1ccc(F)c(-c2nccn2CCN2CCCC2)c1`: the cytotoxicity at 70.5 h is 33.7%. In the case of `O=C(NC1CC1)C1CCCN(c2cccc(C(F)(F)F)n2)C1` (centres undefined), the cytotoxicity at 70.5 h is -5.01%. Consider `CO[C@@H]1CCN(C(=O)c2ccccn2)[C@H]1Cc1ccccc1`, for which the cytotoxicity at 70.5 h was -16.2%. As for `Cc1csc(NC(=O)CN2CCc3nn(C)c(=O)cc3C2)n1`, the cytotoxicity at 70.5 h is -8.05%.
